In patent US11504368B2, “2,6-diamino-3,4-dihydropyrimidin-4-one derivatives and use thereof in therapy” (THOMAS HELLEDAYS STIFTELSE FÖR MEDICINSK FORSKNING, priority 2018, dated 2022):
Where a name gives a salt, the structure may show the parent alone.

Experiments:
HL-60 cells = assay: Cancer cell viability assay (HL-60, resazurin); format: cell-based; details: Homo sapiens, 96 h, mean of at least 3 independent measurements, read-out: HL60 cell proliferation inhibition EC50
Description: HL-60 cells (human promyelocytic leukemia cells) were seeded in a 384-well plate at a density of 2,000 cells per well in 50 μL induction medium and treated with vehicle (DMSO) or an 11-point concentration range with 3-fold dilution in concentration of compound. Each assay point was run in duplicate. Wells without cells but with DMSO were used as negative controls. The cells were left to proliferate over a period of 96 h, in an incubator at 37° C. and 5% CO2, followed by an addition of 10 μL […] resazurin sodium salt (199303, Sigma-Aldrich) dissolved in DPBS (14190, Gibco). After 4 h of incubation at 37° C. and 5% CO2, the fluorescent signal was measured using an excitation wavelength of 544 nm and an emission wavelength of 595 nm in a Hidex Sense plate reader. Cell plates were incubated in boxes with damp paper tissues to avoid evaporation. All additions, except compound and DMSO, were done using the Multidrop Combi (Thermo Fisher Scientific). DMSO and compounds were pre-dispensed with an Echo 550 Liquid handler (Labcyte) in black, clear bottom, TC-treated and sterile 384-well plates (3764, Corning). Growth medium consisted of RPMI 1640 GlutaMAX (61870, Gibco), 10% (v/v) FBS (10500, Gibco), and 1% (v/v) P/S (15070, Gibco). Induction medium consisted of RPMI 1640 GlutaMAX (61870, Gibco), 5% (v/v) FBS (10500, Gibco), and 1% (v/v) P/S (15070, Gibco). EC50 values were determined by fitting a four parameter sigmoidal curve model using XLfit (IDBS). Reported EC50 values are the mean of at least 3 independent measurements.

MTHFD2 = MTHFD2 (Homo sapiens (Human), UniProt P13995); assay: Inhibition of MTHFD2 (NAD(P)H-Glo luminescence); format: biochemical; details: 3.4 nmol/L MTHFD2, 5 μmol/L folitixorin, 250 μmol/L NAD+; mean of at least 3 independent measurements
Sequence of MTHFD2 (P13995 36-350): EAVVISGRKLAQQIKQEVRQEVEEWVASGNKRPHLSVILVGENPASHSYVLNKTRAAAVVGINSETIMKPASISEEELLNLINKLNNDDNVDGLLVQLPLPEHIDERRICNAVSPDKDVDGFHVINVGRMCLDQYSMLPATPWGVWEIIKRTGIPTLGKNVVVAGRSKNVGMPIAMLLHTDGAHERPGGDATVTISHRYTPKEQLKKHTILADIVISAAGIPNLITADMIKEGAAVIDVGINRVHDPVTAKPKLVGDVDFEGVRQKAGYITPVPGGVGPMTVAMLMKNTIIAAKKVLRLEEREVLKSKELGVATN
Description: DMSO was used as negative control. The serial dilution in DMSO, from compound DMSO stock solution, was created by dispensing from a 384-well low dead volume microplate (LP-0200, Labcyte) and a 384-well polypropylene microplate 2.0 (PP-0200, Labcyte). A total of 2.5 μL MTHFD2 was preincubated with compound or DMSO for 10 min. The enzymatic reaction was initiated by adding 2.5 μL folitixorin (F680350, Toronto Research Chemicals). For background control, 5 μL buffer was added to the well. […] The final concentrations of all reagents in a total assay volume of 5 μL per well were 50 mmol/L Tris-HCl at pH 8.0, 100 mmol/L NaCl, 5 mmol/L MgCl2, 25 mmol/L Na3PO4 at pH 8.0, 0.005% (v/v) Tween-20, and 2 mmol/L 2-mercaptoethanol. After 15 min reaction time, 5 μL NAD(P)H-Glo detection reagent (G9061 or G9062, Promega) was dispensed in all wells and the plate was incubated for 60 min. Luminescence was measured on a plate reader (Envision, PerkinElmer or Sense, Hidex). The light signal produced is proportional to the amount of NAD(P)H in the sample. IC50 values were determined by fitting a four parameter sigmoidal curve model using XLfit (IDBS). Reported IC50 values are the mean of at least 3 independent measurements.

Row | Compound | EC50 (HL-60 cells) | IC50 (MTHFD2)
1 | Nc1nc(N)c(NC(=O)Nc2ccc(C(=O)N[C@@H](CCC(=O)O)C(=O)O)nc2)c(=O)[nH]1 [Example 1, (2S)-2-[(5-{[(2,4-diamino-6-oxo-1,6-dihydropyrimidin-5-yl)carbamoyl]amino}pyridin-2-yl)formamido]pentanedioic acid; trifluoroacetic acid] | 75 nM | 24 nM
2 | Nc1nc(N)c(NC(=O)Nc2ccc(C(=O)N[C@@H](Cc3ccccc3)C(=O)O)nc2)c(=O)[nH]1 [Example 2, (2S)-2-[(5-{[(2,4-diamino-6-oxo-1,6-dihydropyrimidin-5-yl)carbamoyl]amino}pyridin-2-yl)formamido]-3-phenylpropanoic acid; trifluoroacetic acid] | 10 nM | 68 nM
3 | CC(C)[C@H](NC(=O)c1ccc(NC(=O)Nc2c(N)nc(N)[nH]c2=O)cn1)C(=O)O [Example 3, (2S)-2-[(5-{[(2,4-diamino-6-oxo-1,6-dihydropyrimidin-5-yl)carbamoyl]amino}pyridin-2-yl)formamido]-3-methylbutanoic acid; trifluoroacetic acid] | 31 nM | 19 nM
4 | Nc1nc(N)c(NC(=O)Nc2ccc(C(=O)N[C@@H](CCc3nnn[nH]3)C(=O)O)nc2)c(=O)[nH]1 [Example 4, (2S)-2-[(5-{[(2,4-diamino-6-oxo-1,6-dihydropyrimidin-5-yl)carbamoyl]amino}pyridin-2-yl)formamido]-4-(1H-1,2,3,4-tetrazol-5-yl)butanoic acid] | 24 nM | 12 nM
5 | Nc1nc(N)c(NC(=O)Nc2cnc(C(=O)N[C@@H](CCC(=O)O)C(=O)O)c(Cl)c2)c(=O)[nH]1 [Example 5, (2S)-2-[(3-chloro-5-{[(2,4-diamino-6-oxo-1,6-dihydropyrimidin-5 yl)carbamoyl]amino}pyridin-2-yl)formamido]pentanedioic acid] | 93 nM | 15 nM
6 | Nc1nc(N)c(NC(=O)Nc2cnc(C(=O)N[C@@H](CCC(=O)O)C(=O)O)c(F)c2)c(=O)[nH]1 [Example 6, (2S)-2-[(5-{[(2,4-diamino-6-oxo-1,6-dihydropyrimidin-5-yl)carbamoyl]amino}-3-fluoropyridin-2-yl)formamido]pentanedioic acid] | 100 nM | 10 nM
7 | Nc1nc(N)c(CC(=O)Nc2ccc(C(=O)N[C@@H](CCC(=O)O)C(=O)O)nc2)c(=O)[nH]1 [Example 7, (2S)-2-((5-[2-(2,4-diamino-6-oxo-1,6-dihydropyrimidin-5-yl)acetamido]pyridin-2-yl)formamido)pentanedioic acid hydrochloride] | 17 nM | 154 nM
8 | Nc1nc(N)c(CC(=O)Nc2ccc(C(=O)N[C@@H](Cc3ccccc3)C(=O)O)nc2)c(=O)[nH]1 [Example 8, (2S)-2-({5-[2-(2,4-diamino-6-oxo-1,6-dihydropyrimidin-5-yl)acetamido]pyridin-2-yl}formamido)-3-phenylpropanoic acid] | 62 nM | 312 nM
9 | Nc1nc(N)c(CC(=O)Nc2ccc(C(=O)N[C@@H](CCc3nnn[nH]3)C(=O)O)nc2)c(=O)[nH]1 [Example 9, (2S)-2-((5-[2-(2,4-diamino-6-oxo-1,6-dihydropyrimidin-5-yl)acetamido]pyridin-2-yl)formamido)-4-(1H-1,2,3,4-tetrazol-5-yl)butanoic acid] | 35 nM | 53 nM
10 | Nc1nc(N)c(CC(=O)Nc2cnc(C(=O)N[C@@H](CCC(=O)O)C(=O)O)c(F)c2)c(=O)[nH]1 [Example 10, (2S)-2-((5-[2-(2,4-diamino-6-oxo-1,6-dihydropyrimidin-5-yl)acetamido]-3-fluoropyridin-2-yl)formamido)pentanedioic acid] | 14 nM | –
11 | Nc1nc(N)c(NC(=O)Nc2ccc(C(=O)N[C@@H](CC3CCCC3)C(=O)O)nc2)c(=O)[nH]1 [Example 11, (2S)-3-cyclopentyl-2-[(5-{[(2,4-diamino-6-oxo-1,6-dihydropyrimidin-5-yl)carbamoyl]amino}pyridin-2-yl)formamido]propanoic acid] | 37 nM | 46 nM
12 | Nc1nc(N)c(NC(=O)Nc2ccc(C(=O)N[C@H](C(=O)O)C3CCCCC3)nc2)c(=O)[nH]1 [Example 12, (2S)-2-cyclohexyl-2-[(5-{[(2,4-diamino-6-oxo-1,6-dihydropyrimidin-5-yl)carbamoyl]amino}pyridin-2-yl)formamido]acetic acid] | 7 nM | 17 nM
13 | CC(C)[C@H](NC(=O)c1ccc(NC(=O)Cc2c(N)nc(N)[nH]c2=O)cn1)C(=O)O [Example 13, (2S)-2-({5-[2-(2,4-diamino-6-oxo-1,6-dihydropyrimidin-5-yl)acetamido]pyridin-2-yl}formamido)-3-methylbutanoic acid] | 215 nM | 103 nM
14 | Nc1nc(N)c(NC(=O)Nc2ccc(C(=O)N[C@@H](CCc3ccccc3)C(=O)O)nc2)c(=O)[nH]1 [Example 14, (2S)-2-[(5-{[(2,4-diamino-6-oxo-1,6-dihydropyrimidin-5-yl)carbamoyl]amino}pyridin-2-yl)formamido]-4-phenylbutanoic acid] | 187 nM | –
15 | Nc1nc(N)c(NC(=O)Nc2ccc(C(=O)N[C@H](C(=O)O)c3ccccc3)nc2)c(=O)[nH]1 [Example 15, (2S)-2-[(5-{[(2,4-diamino-6-oxo-1,6-dihydropyrimidin-5-yl)carbamoyl]amino}pyridin-2-yl)formamido]-2-phenylacetic acid] | 470 nM | 23 nM
16 | Nc1nc(N)c(NC(=O)Nc2ccc(C(=O)N[C@@H](CCC(=O)NS(=O)(=O)c3ccccc3)C(=O)O)nc2)c(=O)[nH]1 [Example 16, (2S)-4-[(benzenesulfonyl)carbamoyl]-2-[(5-{[(2,4-diamino-6-oxo-1,6-dihydropyrimidin-5-yl)carbamoyl]amino}pyridin-2-yl)formamido]butanoic acid] | 197 nM | 11 nM
17 | Nc1nc(N)c(NC(=O)Nc2ccc(C(=O)N[C@@H](CCCC(=O)O)C(=O)O)nc2)c(=O)[nH]1 [Example 17, (2S)-2-[(5-{[(2,4-diamino-6-oxo-1,6-dihydropyrimidin-5-yl)carbamoyl]amino}pyridin-2-yl)formamido]hexanedioic acid] | 200 nM | 32 nM
18 | Nc1nc(N)c(NC(=O)Nc2ccc(C(=O)N[C@@H](CCC(=O)O)C(=O)O)nc2OC2CC2)c(=O)[nH]1 [Example 18, (2S)-2-[(6-cyclopropoxy-5-{[(2,4-diamino-6-oxo-1,6-dihydropyrimidin-5-yl)carbamoyl]amino}pyridin-2-yl)formamido]pentanedioic acid] | 45 nM | 3 nM
19 | Nc1nc(N)c(CC(=O)Nc2cnc(C(=O)N[C@@H](CCC(=O)O)C(=O)O)c(Cl)c2)c(=O)[nH]1 [Example 19, (2S)-2-((3-chloro-5-[2-(2,4-diamino-6-oxo-1,6-dihydropyrimidin-5-yl)acetamido]pyridin-2-yl)formamido)pentanedioic acid] | 8 nM | 72 nM
20 | Cc1cc(NC(=O)Cc2c(N)nc(N)[nH]c2=O)cnc1C(=O)N[C@@H](CCC(=O)O)C(=O)O [Example 20, (2S)-2-({5-[2-(2,4-diamino-6-oxo-1,6-dihydropyrimidin-5-yl)acetamido]-3-methylpyridin-2-yl}formamido)pentanedioic acid] | 34 nM | 913 nM
21 | C=Cc1nc(C(=O)N[C@@H](CCC(=O)O)C(=O)O)ccc1NC(=O)Cc1c(N)nc(N)[nH]c1=O [Example 21, (2S)-2-((5-[2-(2,4-diamino-6-oxo-1,6-dihydropyrimidin-5-yl)acetamido]-6-ethenylpyridin-2-yl)formamido)pentanedioic acid] | 8620 nM | 298 nM
22 | Nc1nc(N)c(NC(=O)Nc2ccc(C(=O)N[C@@H](CC(=O)O)C(=O)O)nc2)c(=O)[nH]1 [Example 22, (2S)-2-[(5-{[(2,4-diamino-6-oxo-1,6-dihydropyrimidin-5-yl)carbamoyl]amino}pyridin-2-yl)formamido]butanedioic acid] | 12800 nM | 195 nM
